# Measurements taken from ChEMBL document CHEMBL3885861, “Open TG-GATES”.
# Species on record: Rattus norvegicus
# Assay: Open TG-GATES - Regimen: Single
# Type: toxicity, organism-based, Sprague-Dawley
# Set-up: regimen Single, gender Male, age 6 weeks
# Conditions: in vivo, po, 25 mg/kg, route gavage, dose level Middle; for APTT / Bas / Eos / Fbg / Hb / Ht / Lym / MCH / MCHC / MCV / Mono / Neu / PT / Plat / RBC / Ret / WBC: tissue Blood; for KIDNEY_L / KIDNEY_R / KIDNEY_TOTAL: tissue Kidney; for LIVER: tissue Liver; for A/G / ALP / ALT / AST / BUN / CRE / Ca / Cl / DBIL / GLC / IP / K / LDH / Na / PL / RALB / TBIL / TC / TG / TP / gamma-GTP: tissue Plasma
smiles,measurement,setting,value
NC1=NC(=O)C(c2ccccc2)O1 (configuration not stated) [PEMOLINE],TERMINAL_BW,3 h,210.1 g
same,APTT,3 h,15.6 s
same,Bas,3 h,0%
same,Eos,3 h,1%
same,Fbg,3 h,280.4 mg/dL
same,Hb,3 h,13.5 g/dL
same,Ht,3 h,39.8%
same,Lym,3 h,74.2%
same,MCH,3 h,21.3 pg
same,MCHC,3 h,33.8%
same,MCV,3 h,62.9 fL
same,Mono,3 h,3.8%
same,Neu,3 h,20.6%
same,PT,3 h,13.1 s
same,Plat,3 h,115 x10_4/uL
same,RBC,3 h,633.2 x10_4/ul
same,Ret,3 h,8.8%
same,WBC,3 h,86.4 x10_2/uL
same,KIDNEY_L,3 h,0.9 g
same,KIDNEY_R,3 h,0.9 g
same,KIDNEY_TOTAL,3 h,1.8 g
same,LIVER,3 h,9.3 g
same,A/G,3 h,1
same,ALP,3 h,1568.2 IU/L
same,ALT,3 h,42.6 IU/L
same,AST,3 h,86 IU/L
same,BUN,3 h,8.2 mg/dL
same,CRE,3 h,0.2 mg/dL
same,Ca,3 h,10.5 mg/dL
same,Cl,3 h,106.4 meq/L
same,DBIL,3 h,0.01 mg/dL
same,GLC,3 h,185.2 mg/dL
same,IP,3 h,8.5 mg/dL
same,K,3 h,3.8 meq/L
same,LDH,3 h,104 IU/L
same,Na,3 h,140.4 meq/L
same,PL,3 h,122.4 mg/dL
same,RALB,3 h,2.7 g/dL
same,TBIL,3 h,0.044 mg/dL
same,TC,3 h,72.4 mg/dL
same,TG,3 h,39.6 mg/dL
same,TP,3 h,5.4 g/dL
same,gamma-GTP,3 h,1.4 IU/L
same,TERMINAL_BW,6 h,209.6 g
same,APTT,6 h,17.7 s
same,Bas,6 h,0.2%
same,Eos,6 h,1%
same,Fbg,6 h,316.4 mg/dL
same,Hb,6 h,13.6 g/dL
same,Ht,6 h,40%
same,Lym,6 h,72.2%
same,MCH,6 h,21.7 pg
same,MCHC,6 h,34%
same,MCV,6 h,63.7 fL
same,Mono,6 h,2.6%
same,Neu,6 h,23.6%
same,PT,6 h,13.4 s
same,Plat,6 h,122.6 x10_4/uL
same,RBC,6 h,629.6 x10_4/ul
same,Ret,6 h,9.8%
same,WBC,6 h,101.7 x10_2/uL
same,KIDNEY_L,6 h,0.9 g
same,KIDNEY_R,6 h,0.9 g
same,KIDNEY_TOTAL,6 h,1.8 g
same,LIVER,6 h,8.2 g
same,A/G,6 h,1
same,ALP,6 h,1568 IU/L
same,ALT,6 h,44 IU/L
same,AST,6 h,81.8 IU/L
same,BUN,6 h,7 mg/dL
same,CRE,6 h,0.2 mg/dL
same,Ca,6 h,10.4 mg/dL
same,Cl,6 h,108.2 meq/L
same,DBIL,6 h,0.01 mg/dL
same,GLC,6 h,179.2 mg/dL
same,IP,6 h,9.4 mg/dL
same,K,6 h,3.5 meq/L
same,LDH,6 h,67.6 IU/L
same,Na,6 h,140.8 meq/L
same,PL,6 h,121.4 mg/dL
same,RALB,6 h,2.8 g/dL
same,TBIL,6 h,0.052 mg/dL
same,TC,6 h,77 mg/dL
same,TG,6 h,15.2 mg/dL
same,TP,6 h,5.5 g/dL
same,gamma-GTP,6 h,1 IU/L
same,TERMINAL_BW,9 h,212 g
same,APTT,9 h,16 s
same,Bas,9 h,0%
same,Eos,9 h,0.6%
same,Fbg,9 h,316.2 mg/dL
same,Hb,9 h,13.7 g/dL
same,Ht,9 h,40.4%
same,Lym,9 h,75.2%
same,MCH,9 h,21.7 pg
same,MCHC,9 h,33.8%
same,MCV,9 h,64.2 fL
same,Mono,9 h,2.4%
same,Neu,9 h,21.2%
same,PT,9 h,13.4 s
same,Plat,9 h,112 x10_4/uL
same,RBC,9 h,630.8 x10_4/ul
same,Ret,9 h,9.7%
same,WBC,9 h,91.7 x10_2/uL
same,KIDNEY_L,9 h,0.9 g
same,KIDNEY_R,9 h,0.9 g
same,KIDNEY_TOTAL,9 h,1.7 g
same,LIVER,9 h,8.1 g
same,A/G,9 h,1
same,ALP,9 h,1640.8 IU/L
same,ALT,9 h,40.2 IU/L
same,AST,9 h,83.4 IU/L
same,BUN,9 h,8.6 mg/dL
same,CRE,9 h,0.2 mg/dL
same,Ca,9 h,10.6 mg/dL
same,Cl,9 h,106.4 meq/L
same,DBIL,9 h,0.014 mg/dL
same,GLC,9 h,191.6 mg/dL
same,IP,9 h,9.7 mg/dL
same,K,9 h,3.8 meq/L
same,LDH,9 h,94.4 IU/L
same,Na,9 h,141.4 meq/L
same,PL,9 h,137 mg/dL
same,RALB,9 h,2.8 g/dL
same,TBIL,9 h,0.044 mg/dL
same,TC,9 h,86.8 mg/dL
same,TG,9 h,27.2 mg/dL
same,TP,9 h,5.6 g/dL
same,gamma-GTP,9 h,1.4 IU/L
same,TERMINAL_BW,24 h,209.6 g
same,APTT,24 h,16.3 s
same,Bas,24 h,0%
same,Eos,24 h,1%
same,Fbg,24 h,290 mg/dL
same,Hb,24 h,12.9 g/dL
same,Ht,24 h,37.6%
same,Lym,24 h,80.4%
same,MCH,24 h,21.9 pg
same,MCHC,24 h,34.3%
same,MCV,24 h,63.7 fL
same,Mono,24 h,3.6%
same,Neu,24 h,14.4%
same,PT,24 h,13 s
same,Plat,24 h,107.2 x10_4/uL
same,RBC,24 h,589 x10_4/ul
same,Ret,24 h,8.2%
same,WBC,24 h,73.1 x10_2/uL
same,KIDNEY_L,24 h,0.9 g
same,KIDNEY_R,24 h,0.9 g
same,KIDNEY_TOTAL,24 h,1.8 g
same,LIVER,24 h,9.3 g
same,A/G,24 h,1
same,ALP,24 h,1533.8 IU/L
same,ALT,24 h,46.6 IU/L
same,AST,24 h,87.8 IU/L
same,BUN,24 h,15.4 mg/dL
same,CRE,24 h,0.2 mg/dL
same,Ca,24 h,10.6 mg/dL
same,Cl,24 h,104.4 meq/L
same,DBIL,24 h,0.014 mg/dL
same,GLC,24 h,176.8 mg/dL
same,IP,24 h,8.8 mg/dL
same,K,24 h,4.2 meq/L
same,LDH,24 h,71.6 IU/L
same,Na,24 h,140.6 meq/L
same,PL,24 h,128.2 mg/dL
same,RALB,24 h,2.7 g/dL
same,TBIL,24 h,0.032 mg/dL
same,TC,24 h,78 mg/dL
same,TG,24 h,50 mg/dL
same,TP,24 h,5.4 g/dL
same,gamma-GTP,24 h,1 IU/L
